Measured values published in ChEMBL document CHEMBL1909046, “DrugMatrix in vitro pharmacology data”.

What was measured:
Histamine H2 receptor = Histamine H2 receptor (Homo sapiens, UniProt P25021); format: cell membranes, CHO-K1, Membrane; note: in other assays of this panel Not Active means under 50% inhibition at 10 µM
[1] = target: T1, Neuropeptide Y receptor type 1 (Homo sapiens, UniProt P25929); format: cell membranes, Membrane; settings: sk-n-mc; note: in other assays of this panel Not Active means under 50% inhibition at 10 µM
T1 sequence (P25929 whole entry): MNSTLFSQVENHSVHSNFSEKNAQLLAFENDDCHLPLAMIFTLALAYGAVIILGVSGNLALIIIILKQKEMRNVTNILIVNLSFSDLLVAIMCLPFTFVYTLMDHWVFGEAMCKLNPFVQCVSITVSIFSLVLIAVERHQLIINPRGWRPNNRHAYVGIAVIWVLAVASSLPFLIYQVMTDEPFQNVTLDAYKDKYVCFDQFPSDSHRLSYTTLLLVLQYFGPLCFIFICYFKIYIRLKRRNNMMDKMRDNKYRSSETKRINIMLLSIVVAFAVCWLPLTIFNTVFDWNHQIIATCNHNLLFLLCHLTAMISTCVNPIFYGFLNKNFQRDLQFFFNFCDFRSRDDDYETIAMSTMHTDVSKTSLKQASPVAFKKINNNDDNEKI

Progesterone receptor = target: T2, Progesterone receptor (Bos taurus, UniProt Q690N0); assay: DRUGMATRIX: Progesterone radioligand binding (ligand: [3H] R-5020); format: tissue-based, Uterus; settings: Not Active = under 50% inhibition at 10 µM
T2 sequence (Q690N0 whole entry): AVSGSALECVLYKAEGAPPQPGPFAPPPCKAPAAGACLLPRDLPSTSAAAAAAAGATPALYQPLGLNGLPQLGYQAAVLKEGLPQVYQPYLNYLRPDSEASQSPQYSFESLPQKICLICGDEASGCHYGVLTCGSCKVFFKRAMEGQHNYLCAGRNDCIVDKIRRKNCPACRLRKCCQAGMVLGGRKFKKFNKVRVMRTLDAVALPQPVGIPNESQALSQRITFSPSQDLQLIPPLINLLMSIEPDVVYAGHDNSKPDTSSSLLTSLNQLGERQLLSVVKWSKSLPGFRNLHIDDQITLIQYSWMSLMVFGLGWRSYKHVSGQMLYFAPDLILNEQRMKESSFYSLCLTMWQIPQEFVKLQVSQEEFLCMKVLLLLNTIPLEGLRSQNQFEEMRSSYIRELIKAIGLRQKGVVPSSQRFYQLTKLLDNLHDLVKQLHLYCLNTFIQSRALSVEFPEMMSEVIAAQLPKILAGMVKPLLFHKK

Interstitial collagenase = target: T3, Interstitial collagenase (Homo sapiens, UniProt P03956); assay: biochemical; format: tissue-based, Rheumatoid synovial fibroblasts;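 note: MMP-1 enzyme inhibition assay using a peptide substrate; in other assays of this panel Not Active means under 50% inhibition at 10 µM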
T3 sequence (P03956 whole entry): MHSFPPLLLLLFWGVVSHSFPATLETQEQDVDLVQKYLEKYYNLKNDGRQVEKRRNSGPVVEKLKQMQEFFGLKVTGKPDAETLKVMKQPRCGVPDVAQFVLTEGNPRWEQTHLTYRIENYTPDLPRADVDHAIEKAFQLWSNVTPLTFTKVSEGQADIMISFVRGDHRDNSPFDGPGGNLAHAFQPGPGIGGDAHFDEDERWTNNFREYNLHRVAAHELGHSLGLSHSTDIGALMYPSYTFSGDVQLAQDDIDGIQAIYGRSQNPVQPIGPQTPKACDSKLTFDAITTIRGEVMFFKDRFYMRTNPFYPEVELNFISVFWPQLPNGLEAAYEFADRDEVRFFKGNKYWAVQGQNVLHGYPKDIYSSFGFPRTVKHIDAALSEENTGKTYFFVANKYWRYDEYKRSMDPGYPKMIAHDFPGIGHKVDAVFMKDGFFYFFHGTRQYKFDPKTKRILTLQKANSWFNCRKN

[2] = target: Tyrosine-protein kinase Fyn (Homo sapiens, UniProt P06241); assay: biochemical; format: cell-based, Insect cells;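 note: enzymatic inhibition of Fyn kinase activity measured with Poly(Glu:Tyr) as the phosphorylation substrate; in other assays of this panel Not Active means under 50% inhibition at 10 µM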
Tyrosine-protein kinase Fyn, sequence (P06241 whole entry): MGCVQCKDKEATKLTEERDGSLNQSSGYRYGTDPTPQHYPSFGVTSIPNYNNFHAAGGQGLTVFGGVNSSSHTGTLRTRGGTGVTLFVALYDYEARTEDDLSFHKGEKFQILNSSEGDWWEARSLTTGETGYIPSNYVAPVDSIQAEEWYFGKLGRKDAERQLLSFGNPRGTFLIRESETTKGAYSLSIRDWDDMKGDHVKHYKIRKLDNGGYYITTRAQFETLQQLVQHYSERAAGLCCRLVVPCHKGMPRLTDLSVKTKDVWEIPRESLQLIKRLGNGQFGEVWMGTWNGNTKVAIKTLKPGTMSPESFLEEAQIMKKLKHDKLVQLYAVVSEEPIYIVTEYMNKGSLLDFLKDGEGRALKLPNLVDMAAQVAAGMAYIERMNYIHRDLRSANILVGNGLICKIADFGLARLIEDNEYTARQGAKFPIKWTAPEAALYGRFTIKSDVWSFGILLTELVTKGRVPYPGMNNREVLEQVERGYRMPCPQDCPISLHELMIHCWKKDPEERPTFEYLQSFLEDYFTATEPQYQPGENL

Histamine H2 receptor, sequence (P25021 whole entry): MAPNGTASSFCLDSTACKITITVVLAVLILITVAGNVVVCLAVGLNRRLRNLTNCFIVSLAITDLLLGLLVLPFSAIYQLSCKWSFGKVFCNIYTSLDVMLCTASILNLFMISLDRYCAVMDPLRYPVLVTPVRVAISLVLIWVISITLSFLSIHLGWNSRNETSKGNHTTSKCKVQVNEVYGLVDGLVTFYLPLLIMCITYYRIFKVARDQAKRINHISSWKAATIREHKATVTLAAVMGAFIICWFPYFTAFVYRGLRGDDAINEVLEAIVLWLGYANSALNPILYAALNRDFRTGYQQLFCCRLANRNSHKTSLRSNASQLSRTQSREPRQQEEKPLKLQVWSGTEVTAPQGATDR

**Q.** Which IC50 (Histamine H2 receptor; read-out: IC50) does the source give for CN1[C@@H]2CC[C@H]1C[C@@H](OC(c1ccccc1)c1ccccc1)C2 [BENZTROPINE] here?
**A.** The IC50 was 1.21 µM.

**Q.** What about the Ki (Histamine H2 receptor; read-out: Ki) of the same compound?
**A.** The Ki was 1.19 µM.

**Q.** And the IC50 [1]?
**A.** Its IC50 is “Not Active”.

**Q.** What about the IC50 (Progesterone receptor) of the same compound?
**A.** Its IC50 is “Not Active”.

**Q.** And the IC50 (Interstitial collagenase)?
**A.** Its IC50 is “Not Active”.

**Q.** And the IC50 ([2]; insect cells)?
**A.** The IC50 was “Not Active”.

**Q.** For Cc1ccc(C(=O)c2ccc(CC(=O)O)n2C)cc1 [TOLMETIN], which IC50 (Histamine H2 receptor; cho-k1) is on record?
**A.** The IC50 was “Not Active”.

**Q.** And the IC50 [1]?
**A.** Its IC50 is “Not Active”.

**Q.** And the IC50 (Progesterone receptor)?
**A.** Its IC50 is “Not Active”.

**Q.** And the IC50 (Interstitial collagenase)?
**A.** Its IC50 is “Not Active”.

**Q.** And the IC50 ([2]; insect cells)?
**A.** The IC50 was “Not Active”.

**Q.** C[S+]([O-])c1ccc(-c2nc(-c3ccncc3)c(-c3ccc(F)cc3)[nH]2)cc1 (stereo unspecified) [SB-203580] was tested. Which IC50 (Histamine H2 receptor; cho-k1) did it give?
**A.** The IC50 was “Not Active”.

**Q.** And the IC50 [1]?
**A.** The IC50 was “Not Active”.

**Q.** What about the IC50 (Progesterone receptor) of the same compound?
**A.** The IC50 was “Not Active”.

**Q.** What about the IC50 (Interstitial collagenase) of the same compound?
**A.** The IC50 was “Not Active”.

**Q.** Which results are given for CN1CCN(C2=Nc3cc(Cl)ccc3Nc3ccccc32)CC1 [CLOZAPINE]?
**A.** IC50 (Histamine H2 receptor; read-out: IC50): […]; Ki (Histamine H2 receptor; read-out: Ki): […]; IC50 [1]: Not Active; IC50 (Progesterone receptor): Not Active; IC50 (Interstitial collagenase): Not Active; IC50 ([2]; insect cells): Not Active

**Q.** How did the IC50 (Histamine H2 receptor; cho-k1) turn out when C[C@]12C=CC(=O)C=C1CC[C@@H]1[C@@H]2C(=O)C[C@@]2(C)[C@H]1CC[C@]2(O)C(=O)CO [PREDNISONE] was run?
**A.** The IC50 was “Not Active”.

**Q.** And the IC50 [1]?
**A.** Its IC50 is “Not Active”.

**Q.** What about the IC50 (Progesterone receptor) of the same compound?
**A.** Its IC50 is “Not Active”.

**Q.** And the IC50 (Interstitial collagenase)?
**A.** Its IC50 is “Not Active”.

**Q.** What about the IC50 ([2]; insect cells) of the same compound?
**A.** Its IC50 is “Not Active”.

**Q.** What does the source list for CC(C)NC[C@@H](O)COc1cccc2ccccc12 [DEXPROPRANOLOL]?
**A.** IC50 (Histamine H2 receptor; cho-k1): Not Active; IC50 [1]: Not Active; IC50 (Progesterone receptor): Not Active; IC50 (Interstitial collagenase): Not Active; IC50 ([2]; insect cells): Not Active

**Q.** For CN1CCN(CCCN2c3ccccc3Sc3ccc(C(F)(F)F)cc32)CC1 [TRIFLUOPERAZINE], which IC50 (Histamine H2 receptor; cho-k1) is on record?
**A.** The IC50 was “Not Active”.

**Q.** What about the IC50 [1] of the same compound?
**A.** Its IC50 is “Not Active”.

**Q.** What about the IC50 (Progesterone receptor) of the same compound?
**A.** The IC50 was “Not Active”.

**Q.** And the IC50 (Interstitial collagenase)?
**A.** Its IC50 is “Not Active”.

**Q.** And the IC50 ([2]; insect cells)?
**A.** Its IC50 is “Not Active”.

**Q.** For O=C(O)COc1ccc(C(=O)c2cccs2)c(Cl)c1Cl, which IC50 (Histamine H2 receptor; cho-k1) is on record?
**A.** Its IC50 is “Not Active”.

**Q.** What about the IC50 [1] of the same compound?
**A.** Its IC50 is “Not Active”.

**Q.** What about the IC50 (Progesterone receptor) of the same compound?
**A.** Its IC50 is “Not Active”.

**Q.** What about the IC50 (Interstitial collagenase) of the same compound?
**A.** The IC50 was “Not Active”.

**Q.** And the IC50 ([2]; insect cells)?
**A.** The IC50 was “Not Active”.

**Q.** What does the source list for C[N+](C)(C)CCOC(=O)CCC(=O)OCC[N+](C)(C)C.[Cl-].[Cl-] [SUCCINYLCHOLINE CHLORIDE]?
**A.** IC50 (Histamine H2 receptor; cho-k1): Not Active; IC50 [1]: Not Active; IC50 (Progesterone receptor): Not Active; IC50 (Interstitial collagenase): Not Active; IC50 ([2]; insect cells): Not Active

**Q.** For TRANSPLATIN, which IC50 (Histamine H2 receptor; cho-k1) is on record?
**A.** Its IC50 is “Not Active”.

**Q.** What about the Ki (Histamine H2 receptor; cho-k1) of the same compound?
**A.** Its Ki is “Not Active”.

**Q.** And the IC50 [1]?
**A.** The IC50 was “Not Active”.

**Q.** And the Ki [1]?
**A.** The Ki was “Not Active”.

**Q.** And the IC50 (Progesterone receptor)?
**A.** Its IC50 is “Not Active”.

**Q.** And the Ki (Progesterone receptor)?
**A.** Its Ki is “Not Active”.

**Q.** What about the IC50 (Interstitial collagenase) of the same compound?
**A.** The IC50 was “Not Active”.

**Q.** And the Ki (Interstitial collagenase)?
**A.** The Ki was “Not Active”.

**Q.** What about the IC50 ([2]; insect cells, read-out: IC50) of the same compound?
**A.** Its IC50 is 564 nM.

**Q.** What does the source list for C[C@@](Cc1ccc(O)c(O)c1)(NN)C(=O)O.O [CARBIDOPA]?
**A.** IC50 (Histamine H2 receptor; cho-k1): Not Active; IC50 [1]: Not Active; IC50 (Progesterone receptor): Not Active; IC50 (Interstitial collagenase): Not Active; IC50 ([2]; read-out: IC50): 3730 nM

**Q.** How did the IC50 (Histamine H2 receptor; cho-k1) turn out when ZIRCONIUM(IV) CHLORIDE was run?
**A.** Its IC50 is “Not Active”.

**Q.** And the Ki (Histamine H2 receptor; cho-k1)?
**A.** The Ki was “Not Active”.

**Q.** What about the IC50 [1] of the same compound?
**A.** The IC50 was “Not Active”.

**Q.** What about the Ki [1] of the same compound?
**A.** The Ki was “Not Active”.

**Q.** What about the IC50 (Progesterone receptor) of the same compound?
**A.** The IC50 was “Not Active”.

**Q.** And the Ki (Progesterone receptor)?
**A.** Its Ki is “Not Active”.

**Q.** And the IC50 (Interstitial collagenase)?
**A.** Its IC50 is “Not Active”.

**Q.** And the Ki (Interstitial collagenase)?
**A.** Its Ki is “Not Active”.

**Q.** And the IC50 ([2]; insect cells)?
**A.** Its IC50 is “Not Active”.

**Q.** What about the Ki ([2]; insect cells) of the same compound?
**A.** The Ki was “Not Active”.

**Q.** CN(C)C(=O)C(CCN1CCC(O)(c2ccc(Cl)cc2)CC1)(c1ccccc1)c1ccccc1 [LOPERAMIDE] was tested. Which IC50 (Histamine H2 receptor; read-out: IC50) did it give?
**A.** Its IC50 is 3.08 µM.

**Q.** And the Ki (Histamine H2 receptor; read-out: Ki)?
**A.** The Ki was 3.03 µM.

**Q.** And the IC50 [1]?
**A.** The IC50 was “Not Active”.

**Q.** And the IC50 (Progesterone receptor)?
**A.** The IC50 was “Not Active”.

**Q.** What about the IC50 (Interstitial collagenase) of the same compound?
**A.** Its IC50 is “Not Active”.

**Q.** What about the IC50 ([2]; insect cells) of the same compound?
**A.** The IC50 was “Not Active”.

**Q.** How did the IC50 (Histamine H2 receptor; cho-k1) turn out when O=C(O)c1ccccc1O [SALICYLIC ACID] was run?
**A.** The IC50 was “Not Active”.

**Q.** What about the IC50 [1] of the same compound?
**A.** The IC50 was “Not Active”.

**Q.** And the IC50 (Progesterone receptor)?
**A.** The IC50 was “Not Active”.

**Q.** And the IC50 (Interstitial collagenase)?
**A.** Its IC50 is “Not Active”.

**Q.** And the IC50 ([2]; insect cells)?
**A.** Its IC50 is “Not Active”.
